{"source": "paper doi:10.1101/2025.04.25.650653", "about": "“Hierarchical small molecule inhibition of MYST acetyltransferases” (bioRxiv, 2025)", "tested_on": "histone modifications in MCF-7 cells", "test": "Histone modification analysis by bottom-up LC-MS/MS;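 on Ratio, H2AV 1 19 K11ac*: inhibitor concentrations in µM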;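 on Ratio, H2AX 4 11 K5acK9ac: inhibitor concentrations in µM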;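 on Ratio, H2AX 4 11 K9ac: inhibitor concentrations in µM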;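 on Ratio, H2AZ 1 19 K15ac: inhibitor concentrations in µM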;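 on Ratio, H2AZ 1 19 K4ac: inhibitor concentrations in µM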;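 on Ratio, H2AZ 1 19 K4acK11ac: inhibitor concentrations in µM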", "assay_type": "cell-based", "excerpt": "In this approach. […] Histones are then extracted from cell pellets and chemically derivatized with propionic anhydride, digested with trypsin, subjected to a second round of propionylation, and analyzed by LC-MS/MS. Measuring the relative intensity of modified versus unmodified forms of individual histone peptides enables simultaneous monitoring of multiple potential biomarkers of MYST inhibition. To minimize false positives, we focused on abundant and reproducible modifications (average stoichiometry of greater than 1% across triplicate samples, standard deviation less than or equal to the average measurement). To account for potential histone modification crosstalk, changes in both acetylated and methylated peptides were evaluated. 38 modified peptides passed this reproducible detection threshold including several established KAT biomarkers[41] including H3K9Ac (KAT2A/B), H3K18Ac (KAT3A/B), H3K14Ac (KAT7), H3K23Ac (KAT6A/B), H4K16Ac (KAT8), and H2A.ZK4/K7Ac (KAT5; Fig. 4B).\nHistone modification analysis\nMCF-7 cells were cultured at 37 °C under 5% CO2 in EMEM (Quality Biological, 112-016-101) with 0.01 mg/mL human recombinant insulin (Sigma Aldrich, 91077C), 2 mM L-glutamine (Quality Biological, 118- […]\nhuman recombinant insulin.\n1119, WM-3835). Following 24 h inhibitor treatment, cells were washed with ice-cold 1× PBS and scraped in 150 µL of Nuclear Isolation Buffer (NIB) containing 0.1% NP-40 for histone extraction using a modified protocol from the Garcia laboratory. 9 Briefly, cell suspensions were incubated on ice for 5 minutes, and […]\nnuclei were pelleted by centrifugation (600 rcf, 4°C, 5 min). Pelleted nuclei were washed twice with 150 μL of detergent-free NIB buffer, followed by centrifugation (600 rcf, 4°C, 5 min) to remove all detergent.\nNuclei were then resuspended in 400 μL of 0.4 N H₂SO₄ and rotated at 4°C overnight for acid extraction of histones. The following day, samples were centrifuged (11,000 rcf, 4°C, 10 min) and the histone-containing supernatant was transferred to a fresh tube. Trichloroacetic acid (100% TCA) was added to achieve a final concentration of 20% (v/v), tubes were inverted once to mix, and histone precipitation was performed on ice for at least 3 hours or overnight at 4°C. Precipitated histones were collected by centrifugation (11,000 rcf, 4°C, 10 min) and the supernatant carefully removed, leaving a visible film of histones on the tube wall or bottom. Histone pellets were subjected to sequential washes with 1 mL of ice-cold acidified acetone (0.1% 12 N HCl) followed by 1 mL of 100% ice-cold acetone, with centrifugation (11,000 rcf, 4°C, 5 min) after each wash. Samples were air-dried at room temperature, resuspended in 40 µL of ddH₂O, and protein […]\nanalysis, 1-2 µg of purified histones were loaded per lane and processed according to the general immunoblotting protocol described in General Materials and Methods.\nAnalysis of histone modifications by LC-MS/MS\nPreparation of histone samples for LC-MS/MS was performed analogously to the procedure for immunoblotting above, with the following modifications. MCF7 cells (4.2 × 106) were seeded in 15 cm dishes and treated with PF-9363 or vehicle. Experiments were performed in triplicate. Following treatment and PBS washing, cells were scraped and collected in 15 mL falcon tubes, pelleted (500 rcf, 4°C, 5 min), resuspended in 1 mL cold PBS, transferred to microcentrifuge tubes, and pelleted again before flash-freezing in liquid nitrogen for storage at -80°C. For extraction, cell pellets (~100 μL) were resuspended in NIB buffer at a 1:10 ratio, and cells were lysed with NIB buffer containing 0.2% NP-40 for 8 minutes on ice. Nuclei were pelleted at 1,000 rcf for 8 minutes and washed three times with 500 μL detergent-free NIB buffer. Histones were extracted using 800 μL of 0.2 M H₂SO₄, and after centrifugation (3,400 rcf, 4°C, 10", "key": {"[1]": {"settings": "KAT marker KAT5, PF-9363 0.1, Replicates 1-3"}, "[2]": {"settings": "KAT marker KAT5, PF-9363 1, Replicates 1-3"}, "[3]": {"settings": "KAT marker KAT5, PF-9363 10, Replicates 1-3"}, "[4]": {"settings": "KAT marker KAT5, PF-9363 30, Replicates 1-3"}, "[5]": {"settings": "KAT marker KAT5, PF-9363 (0.1 mM)"}, "[6]": {"settings": "KAT marker KAT5, PF-9363 (30 mM)"}, "[7]": {"settings": "KAT marker KAT5, average ratio 0.1 v 30"}}, "note": "Where “and” joins values, the source holds several entries; their conditions need not be identical. Equal values may be shown once.", "data": [{"smiles": "COc1cccc(OC)c1S(=O)(=O)Nc1noc2cc(Cn3cccn3)cc(OC)c12", "note": "[PF-9363]", "values": [{"measurement": "Ratio, H2AV_1_19 K11ac*", "setting": "[1]", "result": "0.007595 and 0.00642 and 0.01986"}, {"measurement": "Ratio, H2AX_4_11 K5acK9ac", "setting": "[1]", "result": "0.05241 and 0.03954 and 0.03977"}, {"measurement": "Ratio, H2AX_4_11 K9ac", "setting": "[1]", "result": "0.01011 and 0.01143 and 0.00727"}, {"measurement": "Ratio, H2AZ_1_19 K4ac", "setting": "[1]", "result": "0.0934 and 0.07612 and 0.06178"}, {"measurement": "Ratio, H2AZ_1_19 K4acK11ac", "setting": "[1]", "result": "0.01166 and 0.008639 and 0.01028"}, {"measurement": "Ratio, H2AZ_1_19 K15ac", "setting": "[1]", "result": "0.004599 and 0.02439 and 0.01482"}, {"measurement": "Ratio, H2AV_1_19 K11ac*", "setting": "[2]", "result": "0.004474 and 0.01793 and 0.01146"}, {"measurement": "Ratio, H2AX_4_11 K5acK9ac", "setting": "[2]", "result": "0.01434 and 0.002712 and 0.0302"}, {"measurement": "Ratio, H2AX_4_11 K9ac", "setting": "[2]", "result": "0.009767 and 0.01635 and 0.01121"}, {"measurement": "Ratio, H2AZ_1_19 K4ac", "setting": "[2]", "result": "0.09212 and 0.06375 and 0.07053"}, {"measurement": "Ratio, H2AZ_1_19 K4acK11ac", "setting": "[2]", "result": "0.007173 and 0.01149 and 0.00767"}, {"measurement": "Ratio, H2AZ_1_19 K15ac", "setting": "[2]", "result": "0.003136 and 0.01439 and 0.00489"}, {"measurement": "Ratio, H2AV_1_19 K11ac*", "setting": "[3]", "result": "0.01122 and 0 and 0.008954"}, {"measurement": "Ratio, H2AX_4_11 K5acK9ac", "setting": "[3]", "result": "0.00945 and 0.08577 and 0.02854"}, {"measurement": "Ratio, H2AX_4_11 K9ac", "setting": "[3]", "result": "0.01063 and 0.01009 and 0.01309"}, {"measurement": "Ratio, H2AZ_1_19 K4ac", "setting": "[3]", "result": "0.08614 and 0 and 0.04884"}, {"measurement": "Ratio, H2AZ_1_19 K4acK11ac", "setting": "[3]", "result": "0.008371 and 0 and 0.01009"}, {"measurement": "Ratio, H2AZ_1_19 K15ac", "setting": "[3]", "result": "0.007824 and 0 and 0.01105"}, {"measurement": "Ratio, H2AV_1_19 K11ac*", "setting": "[4]", "result": "0.005769 and 0.002136 and 0.002357"}, {"measurement": "Ratio, H2AX_4_11 K5acK9ac", "setting": "[4]", "result": "0.04001 and 0.01893 and 0.03445"}, {"measurement": "Ratio, H2AX_4_11 K9ac", "setting": "[4]", "result": "0.01286 and 0.00924 and 0.00685"}, {"measurement": "Ratio, H2AZ_1_19 K4ac", "setting": "[4]", "result": "0 and 0.02795 and 0.04699"}, {"measurement": "Ratio, H2AZ_1_19 K4acK11ac", "setting": "[4]", "result": "0 (2×) and 0.004492"}, {"measurement": "Ratio, H2AZ_1_19 K15ac", "setting": "[4]", "result": "0 and 0.01504 and 0.003466"}, {"measurement": "Average ratio, H2AV_1_19 K11ac*", "setting": "[5]", "result": 0.0113}, {"measurement": "Average ratio, H2AX_4_11 K5acK9ac", "setting": "[5]", "result": 0.0439}, {"measurement": "Average ratio, H2AX_4_11 K9ac", "setting": "[5]", "result": 0.0096}, {"measurement": "Average ratio, H2AZ_1_19 K4ac", "setting": "[5]", "result": 0.0771}, {"measurement": "Average ratio, H2AZ_1_19 K4acK11ac", "setting": "[5]", "result": 0.0102}, {"measurement": "Average ratio, H2AZ_1_19 K15ac", "setting": "[5]", "result": 0.0146}, {"measurement": "Average ratio, H2AV_1_19 K11ac*", "setting": "[6]", "result": 0.0034}, {"measurement": "Average ratio, H2AX_4_11 K5acK9ac", "setting": "[6]", "result": 0.0311}, {"measurement": "Average ratio, H2AX_4_11 K9ac", "setting": "[6]", "result": 0.0097}, {"measurement": "Average ratio, H2AZ_1_19 K4ac", "setting": "[6]", "result": 0.0250}, {"measurement": "Average ratio, H2AZ_1_19 K4acK11ac", "setting": "[6]", "result": 0.0015}, {"measurement": "Average ratio, H2AZ_1_19 K15ac", "setting": "[6]", "result": 0.0062}, {"measurement": "Fold-change 0.1 v 30, H2AV_1_19 K11ac*", "setting": "[7]", "result": 3.30}, {"measurement": "Fold-change 0.1 v 30, H2AX_4_11 K5acK9ac", "setting": "[7]", "result": 1.41}, {"measurement": "Fold-change 0.1 v 30, H2AX_4_11 K9ac", "setting": "[7]", "result": 1.00}, {"measurement": "Fold-change 0.1 v 30, H2AZ_1_19 K4ac", "setting": "[7]", "result": 3.09}, {"measurement": "Fold-change 0.1 v 30, H2AZ_1_19 K4acK11ac", "setting": "[7]", "result": 6.81}, {"measurement": "Fold-change 0.1 v 30, H2AZ_1_19 K15ac", "setting": "[7]", "result": 2.37}, {"measurement": "Fold-change 0.1 v 30, H3_18_26 unmod", "setting": "KQLATKAAR(H3_18_26), PF-9363 0.1 v 30", "result": 0.96}, {"measurement": "Average ratio, H3_18_26 unmod", "setting": "KQLATKAAR(H3_18_26), PF-9363 (0.1 mM)", "result": 0.9434}, {"measurement": "Average ratio, H3_18_26 unmod", "setting": "KQLATKAAR(H3_18_26), PF-9363 (30 mM)", "result": 0.9781}, {"measurement": "Ratio, H3_73_83 K79me1", "setting": "PF-9363 0.1, Replicates 1-3", "result": "0.07799 and 0.09275 and 0.09546"}, {"measurement": "Ratio, H3_73_83 K79me2", "setting": "PF-9363 0.1, Replicates 1-3", "result": "0.05292 and 0.1051 and 0.06234"}, {"measurement": "Ratio, H3_73_83 unmod", "setting": "PF-9363 0.1, Replicates 1-3", "result": "0.8672 and 0.8006 and 0.8413"}, {"measurement": "Ratio, H4_4_17 K12acK16ac", "setting": "PF-9363 0.1, Replicates 1-3", "result": "0.009379 and 0.008608 and 0.009722"}, {"measurement": "Ratio, H4_4_17 unmod", "setting": "PF-9363 0.1, Replicates 1-3", "result": "0.6357 and 0.6297 and 0.6309"}, {"measurement": "Ratio, H4_20_23 K20me1", "setting": "PF-9363 0.1, Replicates 1-3", "result": "0.02877 and 0.03606 and 0.02758"}, {"measurement": "Ratio, H4_20_23 unmod", "setting": "PF-9363 0.1, Replicates 1-3", "result": "0.03039 and 0.02967 and 0.02773"}, {"measurement": "Fold-change 0.1 v 30, H2A1_12_17 unmod (AKAKTR)", "setting": "PF-9363 0.1 v 30, peptide H2A1_12_17 unmod, MCF-7", "result": 0.98}, {"measurement": "Fold-change 0.1 v 30, H2A3_12_17 K15me1 (AKAKSR)", "setting": "PF-9363 0.1 v 30, peptide H2A3_12_17 K15me1, MCF-7", "result": 0.96}, {"measurement": "Ratio, H2A1_1_11 K5ac", "setting": "PF-9363 1, Replicates 1-3", "result": "0.9077 and 0.9494 and 0.9116"}, {"measurement": "Ratio, H2A1_4_11 K5ac", "setting": "PF-9363 1, Replicates 1-3", "result": "0.06275 and 0.03204 and 0.05607"}, {"measurement": "Ratio, H2A1_4_11 K9ac", "setting": "PF-9363 1, Replicates 1-3", "result": "0.0308 and 0.06179 and 0.03113"}]}]}
